Assay results: ChEMBL document CHEMBL4387741, “Optimization of novel reversible Bruton's tyrosine kinase inhibitors identified using Tethering-fragment-based screens” (Bioorg Med Chem, 2019)

How the values were obtained:
[1] = target: BMP-2-inducible protein kinase (Homo sapiens) (UniProt Q9NSY1); assay: Inhibition of wild-type human partial length BIKE (S34 to N329 residues) expressed in bacterial expression system at 1 uM by Kinomescan method relative to control
[2] = target: Tyrosine-protein kinase BTK (Homo sapiens, UniProt Q06187); assay: Inhibition of wild-type human full length BTK (M1 to S659 residues) expressed in mammalian expression system at 1 uM by Kinomescan method relative to control
[3] = target: Casein kinase II subunit alpha (Homo sapiens) (UniProt P68400); assay: Inhibition of wild-type human full length CSNK2A1 (M1 to Q391 residues) expressed in mammalian expression system at 1 uM by Kinomescan method relative to control
[4] = target: LIM domain kinase 1 (Homo sapiens) (UniProt P53667); assay: Inhibition of wild-type human full length LIMK1 (M1 to D647 residues) expressed in bacterial expression system at 1 uM by Kinomescan method relative to control
[5] = target: MAP kinase-interacting serine/threonine-protein kinase 1 (Homo sapiens) (UniProt Q9BUB5); assay: Inhibition of wild-type human full length MKNK1 (M1 to L424 residues) expressed in mammalian expression system at 1 uM by Kinomescan method relative to control
Sequence of MAP kinase-interacting serine/threonine-protein kinase 1 (Homo sapiens) (Q9BUB5 whole entry, looked up, the tested form may be a part): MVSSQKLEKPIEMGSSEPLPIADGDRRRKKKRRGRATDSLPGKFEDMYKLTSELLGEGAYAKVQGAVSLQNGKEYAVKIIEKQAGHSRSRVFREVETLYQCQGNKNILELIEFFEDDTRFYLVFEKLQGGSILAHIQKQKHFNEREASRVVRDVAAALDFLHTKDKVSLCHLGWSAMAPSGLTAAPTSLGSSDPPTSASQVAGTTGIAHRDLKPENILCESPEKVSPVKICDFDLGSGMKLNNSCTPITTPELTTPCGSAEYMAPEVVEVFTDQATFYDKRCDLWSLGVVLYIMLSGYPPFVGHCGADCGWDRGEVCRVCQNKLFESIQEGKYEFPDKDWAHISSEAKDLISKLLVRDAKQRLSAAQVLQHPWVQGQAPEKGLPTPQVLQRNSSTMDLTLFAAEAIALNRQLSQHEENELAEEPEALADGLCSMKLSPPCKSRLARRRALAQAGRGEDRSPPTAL

[6] = target: Mitogen-activated protein kinase kinase kinase 9 (Homo sapiens) (UniProt P80192); assay: Inhibition of wild-type human partial length MLK1 (V88 to W426 residues) expressed in bacterial expression system at 1 uM by Kinomescan method relative to control
[7] = target: Mitogen-activated protein kinase kinase kinase 10 (Homo sapiens) (UniProt Q02779); assay: Inhibition of wild-type human partial length MLK2 (V52 to W380 residues) expressed in bacterial expression system at 1 uM by Kinomescan method relative to control
Sequence of Mitogen-activated protein kinase kinase kinase 10 (Homo sapiens) (Q02779 whole entry, looked up, the tested form may be a part): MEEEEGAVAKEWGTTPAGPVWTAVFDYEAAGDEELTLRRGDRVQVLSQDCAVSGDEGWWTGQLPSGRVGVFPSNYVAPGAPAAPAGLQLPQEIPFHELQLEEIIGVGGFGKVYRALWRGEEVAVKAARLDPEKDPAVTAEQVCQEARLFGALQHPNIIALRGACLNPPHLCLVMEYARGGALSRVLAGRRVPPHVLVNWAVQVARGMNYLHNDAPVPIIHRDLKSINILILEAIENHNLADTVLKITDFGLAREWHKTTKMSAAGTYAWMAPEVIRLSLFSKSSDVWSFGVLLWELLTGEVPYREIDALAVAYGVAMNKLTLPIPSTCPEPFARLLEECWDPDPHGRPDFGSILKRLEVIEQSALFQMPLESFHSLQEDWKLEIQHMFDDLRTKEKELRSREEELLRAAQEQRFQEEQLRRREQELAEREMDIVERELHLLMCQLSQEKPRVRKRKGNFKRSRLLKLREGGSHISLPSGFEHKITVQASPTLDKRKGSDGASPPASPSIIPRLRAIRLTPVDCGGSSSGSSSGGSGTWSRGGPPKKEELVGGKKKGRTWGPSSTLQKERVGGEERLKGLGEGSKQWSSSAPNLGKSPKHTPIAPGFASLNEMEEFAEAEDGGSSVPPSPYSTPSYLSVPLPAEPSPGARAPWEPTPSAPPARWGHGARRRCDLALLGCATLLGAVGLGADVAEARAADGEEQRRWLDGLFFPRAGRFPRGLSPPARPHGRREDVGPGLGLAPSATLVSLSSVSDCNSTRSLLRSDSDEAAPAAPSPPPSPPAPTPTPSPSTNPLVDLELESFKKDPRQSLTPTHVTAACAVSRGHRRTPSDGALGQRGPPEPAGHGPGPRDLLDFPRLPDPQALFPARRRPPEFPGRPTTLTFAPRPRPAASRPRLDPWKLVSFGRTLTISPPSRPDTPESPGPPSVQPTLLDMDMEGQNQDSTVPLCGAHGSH

[8] = target: Serine/threonine-protein kinase MRCK alpha (Homo sapiens) (UniProt Q5VT25); assay: Inhibition of wild-type human partial length MRCKA (L57 to V418 residues) expressed in bacterial expression system at 1 uM by Kinomescan method relative to control
[9] = target: Serine/threonine-protein kinase 38 (Homo sapiens) (UniProt Q15208); assay: Inhibition of wild-type human partial length NDR1 (N33 to E449 residues) expressed in mammalian expression system at 1 uM by Kinomescan method relative to control
Sequence of Serine/threonine-protein kinase 38 (Homo sapiens) (Q15208 2-465 limits assumed): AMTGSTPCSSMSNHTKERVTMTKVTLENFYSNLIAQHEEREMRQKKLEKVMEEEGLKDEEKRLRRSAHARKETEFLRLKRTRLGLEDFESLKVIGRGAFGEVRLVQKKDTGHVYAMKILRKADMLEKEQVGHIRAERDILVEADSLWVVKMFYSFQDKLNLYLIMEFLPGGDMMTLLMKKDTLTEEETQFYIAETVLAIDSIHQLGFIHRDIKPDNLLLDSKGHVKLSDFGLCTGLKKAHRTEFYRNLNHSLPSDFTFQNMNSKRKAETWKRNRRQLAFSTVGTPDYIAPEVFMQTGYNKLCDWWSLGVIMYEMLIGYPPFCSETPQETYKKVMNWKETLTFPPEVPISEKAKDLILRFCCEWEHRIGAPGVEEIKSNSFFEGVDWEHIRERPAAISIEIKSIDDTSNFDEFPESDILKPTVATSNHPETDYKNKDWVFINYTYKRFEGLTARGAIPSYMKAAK

[10] = target: Interferon-induced, double-stranded RNA-activated protein kinase (Homo sapiens) (UniProt P19525); assay: Inhibition of wild-type human partial length PRKR (F247 to C551 residues) expressed in bacterial expression system at 1 uM by Kinomescan method relative to control
Sequence of Interferon-induced, double-stranded RNA-activated protein kinase (Homo sapiens) (P19525 whole entry, the tested form may be a part): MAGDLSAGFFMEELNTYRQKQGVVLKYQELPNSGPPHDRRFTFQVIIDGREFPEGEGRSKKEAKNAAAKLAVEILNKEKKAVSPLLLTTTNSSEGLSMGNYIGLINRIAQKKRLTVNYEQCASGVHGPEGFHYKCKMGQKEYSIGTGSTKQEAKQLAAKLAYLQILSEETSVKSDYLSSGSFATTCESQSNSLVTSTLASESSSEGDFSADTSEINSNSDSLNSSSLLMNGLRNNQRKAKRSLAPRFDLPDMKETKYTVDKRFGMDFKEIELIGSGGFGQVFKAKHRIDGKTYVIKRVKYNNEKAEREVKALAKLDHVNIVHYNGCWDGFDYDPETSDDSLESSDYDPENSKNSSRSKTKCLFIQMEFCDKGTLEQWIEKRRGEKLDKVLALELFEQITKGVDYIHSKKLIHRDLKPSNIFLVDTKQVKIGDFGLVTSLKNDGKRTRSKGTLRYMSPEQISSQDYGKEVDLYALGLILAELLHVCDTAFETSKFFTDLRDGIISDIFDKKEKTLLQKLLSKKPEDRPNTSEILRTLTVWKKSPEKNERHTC

[11] = target: Ribosomal protein S6 kinase alpha-6 (Homo sapiens) (UniProt Q9UK32); assay: Inhibition of wild-type human partial length C-terminal RSK4 kinase domain 2 (I401 to Y711 residues) expressed in bacterial expression system at 1 uM by Kinomescan method relative to control
[12] = target: Tyrosine-protein kinase SYK (Homo sapiens) (UniProt P43405); assay: Inhibition of wild-type human partial length SYK (D354 to N635 residues) expressed in bacterial expression system at 1 uM by Kinomescan method relative to control
[13] = target: Serine/threonine-protein kinase TAO1 (Homo sapiens) (UniProt Q7L7X3); assay: Inhibition of wild-type human partial length TAOK1 (M1 to A320 residues) expressed in mammalian expression system at 1 uM by Kinomescan method relative to control
[14] = target: Tyrosine-protein kinase receptor Tie-1 (Homo sapiens) (UniProt P35590); assay: Inhibition of wild-type human partial length TIE1 (T819 to A1138 residues) expressed in bacterial expression system at 1 uM by Kinomescan method relative to control
[15] = target: Activated CDC42 kinase 1 (Homo sapiens) (UniProt Q07912); assay: Inhibition of wild-type human partial length TNK2 (S159 to D474 residues) expressed in bacterial expression system at 1 uM by Kinomescan method relative to control
Sequence of Activated CDC42 kinase 1 (Homo sapiens) (Q07912 whole entry, looked up, the tested form may be a part): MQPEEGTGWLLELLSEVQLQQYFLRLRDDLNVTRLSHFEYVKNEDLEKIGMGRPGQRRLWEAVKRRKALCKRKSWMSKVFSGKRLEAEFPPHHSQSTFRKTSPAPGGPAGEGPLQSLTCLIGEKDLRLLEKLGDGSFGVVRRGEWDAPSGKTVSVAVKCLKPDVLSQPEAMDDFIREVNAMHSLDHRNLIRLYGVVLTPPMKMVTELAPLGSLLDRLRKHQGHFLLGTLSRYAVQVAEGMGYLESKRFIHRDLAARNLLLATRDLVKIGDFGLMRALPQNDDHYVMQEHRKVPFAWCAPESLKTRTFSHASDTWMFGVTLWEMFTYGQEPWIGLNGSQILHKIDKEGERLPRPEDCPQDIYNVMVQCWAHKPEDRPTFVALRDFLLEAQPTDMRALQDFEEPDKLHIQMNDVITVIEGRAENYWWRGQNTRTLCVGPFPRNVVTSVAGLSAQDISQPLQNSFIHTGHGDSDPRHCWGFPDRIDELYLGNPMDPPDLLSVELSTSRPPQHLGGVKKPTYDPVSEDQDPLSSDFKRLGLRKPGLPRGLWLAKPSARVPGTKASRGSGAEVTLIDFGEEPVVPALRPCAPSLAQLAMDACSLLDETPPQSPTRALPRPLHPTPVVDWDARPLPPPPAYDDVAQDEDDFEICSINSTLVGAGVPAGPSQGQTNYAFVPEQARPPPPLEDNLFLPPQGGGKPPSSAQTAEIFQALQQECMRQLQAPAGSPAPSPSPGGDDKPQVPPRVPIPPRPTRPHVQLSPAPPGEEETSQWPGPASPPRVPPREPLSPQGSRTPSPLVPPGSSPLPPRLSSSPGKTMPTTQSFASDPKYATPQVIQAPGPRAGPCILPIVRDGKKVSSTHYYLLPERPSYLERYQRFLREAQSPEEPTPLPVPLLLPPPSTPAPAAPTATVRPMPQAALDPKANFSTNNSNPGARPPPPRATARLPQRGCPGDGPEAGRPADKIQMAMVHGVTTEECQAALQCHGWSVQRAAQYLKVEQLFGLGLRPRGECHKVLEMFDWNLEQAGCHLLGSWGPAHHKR

[16] = target: Serine/threonine-protein kinase WNK3 (Homo sapiens) (UniProt Q9BYP7); assay: Inhibition of wild-type human partial length WNK3 (M1 to D434 residues) expressed in mammalian expression system at 1 uM by Kinomescan method relative to control
[17] = Plasma clearance in Sprague-Dawley rat at 1 mg/kg, iv; format: ADME, organism-based
[18] = AUC (infinity) in po dosed Sprague-Dawley rat using amorphous solid form of compound; format: ADME, organism-based; design: route oral, time infinity; settings: in vivo
[19] = system: Tyrosine-protein kinase ABL1 (Homo sapiens), P00519 [Q252H]; assay: Inhibition of human non-phosphorylated ABL1 Q252H mutant (S229 to K512 residues) expressed in mammalian expression system at 10 uM by Kinomescan method relative to control
[20] = system: Tyrosine-protein kinase ABL1 (Homo sapiens), P00519 [T315I]; assay: Inhibition of human phosphorylated ABL1 T315I mutant (S229 to K512 residues) expressed in mammalian expression system at 10 uM by Kinomescan method relative to control
[21] = target: Serine/threonine-protein kinase DCLK3 (Homo sapiens) (UniProt Q9C098); assay: Inhibition of wild-type human partial length DCAMKL3 (E140 to V628 residues) expressed in bacterial expression system at 10 uM by Kinomescan method relative to control
[22] = system: Receptor-type tyrosine-protein kinase FLT3 (Homo sapiens), P36888 [N841I]; assay: Inhibition of human partial length FLT3 N841I mutant (V592 to Y969 residues) expressed in bacterial expression system at 10 uM by Kinomescan method relative to control
[23] = target: Inhibitor of nuclear factor kappa-B kinase subunit alpha (Homo sapiens) (UniProt O15111); assay: Inhibition of wild-type human full length IKK-alpha (M1 to E745 residues) expressed in mammalian expression system at 10 uM by Kinomescan method relative to control
[24] = target: Tyrosine-protein kinase JAK1 (Homo sapiens) (UniProt P23458); assay: Inhibition of wild-type human partial length JAK1 JH2 pseudokinase domain (R537 to D855 residues) expressed in mammalian expression system at 10 uM by Kinomescan method relative to control
[25] = target: Myosin light chain kinase family member 4 (Homo sapiens) (UniProt Q86YV6); assay: Inhibition of wild-type human partial length MYLK4 (V79 to S380 residues) expressed in bacterial expression system at 10 uM by Kinomescan method relative to control
Sequence of Myosin light chain kinase family member 4 (Homo sapiens) (Q86YV6 whole entry, the tested form may be a part): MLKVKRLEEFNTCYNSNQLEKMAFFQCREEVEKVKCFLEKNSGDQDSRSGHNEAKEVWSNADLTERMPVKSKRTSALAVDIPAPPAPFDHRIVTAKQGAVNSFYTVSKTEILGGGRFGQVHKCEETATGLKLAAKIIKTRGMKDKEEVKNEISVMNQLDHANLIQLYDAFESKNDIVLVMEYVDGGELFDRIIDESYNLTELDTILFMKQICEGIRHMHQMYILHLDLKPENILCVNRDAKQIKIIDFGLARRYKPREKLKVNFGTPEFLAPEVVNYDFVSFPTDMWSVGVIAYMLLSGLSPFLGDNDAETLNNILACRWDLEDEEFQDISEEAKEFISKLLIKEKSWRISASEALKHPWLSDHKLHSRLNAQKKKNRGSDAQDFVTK

[26] = target: Cyclin-dependent kinase 2 homolog (Plasmodium falciparum (isolate 3D7)) (UniProt P61075); assay: Inhibition of wild-type Plasmodium falciparum full length PK5 (M1 to N288 residues) expressed in mammalian expression system at 10 uM by Kinomescan method relative to control
[27] = target: Serine/threonine-protein kinase Sgk3 (Homo sapiens) (UniProt Q96BR1); assay: Inhibition of wild-type human partial length SGK3 (M119 to L496 residues) expressed in mammalian expression system at 10 uM by Kinomescan method relative to control
[28] = target: Serine/threonine-protein kinase SIK1 (Homo sapiens) (UniProt P57059); assay: Inhibition of wild-type human partial length SIK (M1 to Y304 residues) expressed in bacterial expression system at 10 uM by Kinomescan method relative to control

Sequence of BMP-2-inducible protein kinase (Homo sapiens) (Q9NSY1 whole entry, looked up, the tested form may be a part): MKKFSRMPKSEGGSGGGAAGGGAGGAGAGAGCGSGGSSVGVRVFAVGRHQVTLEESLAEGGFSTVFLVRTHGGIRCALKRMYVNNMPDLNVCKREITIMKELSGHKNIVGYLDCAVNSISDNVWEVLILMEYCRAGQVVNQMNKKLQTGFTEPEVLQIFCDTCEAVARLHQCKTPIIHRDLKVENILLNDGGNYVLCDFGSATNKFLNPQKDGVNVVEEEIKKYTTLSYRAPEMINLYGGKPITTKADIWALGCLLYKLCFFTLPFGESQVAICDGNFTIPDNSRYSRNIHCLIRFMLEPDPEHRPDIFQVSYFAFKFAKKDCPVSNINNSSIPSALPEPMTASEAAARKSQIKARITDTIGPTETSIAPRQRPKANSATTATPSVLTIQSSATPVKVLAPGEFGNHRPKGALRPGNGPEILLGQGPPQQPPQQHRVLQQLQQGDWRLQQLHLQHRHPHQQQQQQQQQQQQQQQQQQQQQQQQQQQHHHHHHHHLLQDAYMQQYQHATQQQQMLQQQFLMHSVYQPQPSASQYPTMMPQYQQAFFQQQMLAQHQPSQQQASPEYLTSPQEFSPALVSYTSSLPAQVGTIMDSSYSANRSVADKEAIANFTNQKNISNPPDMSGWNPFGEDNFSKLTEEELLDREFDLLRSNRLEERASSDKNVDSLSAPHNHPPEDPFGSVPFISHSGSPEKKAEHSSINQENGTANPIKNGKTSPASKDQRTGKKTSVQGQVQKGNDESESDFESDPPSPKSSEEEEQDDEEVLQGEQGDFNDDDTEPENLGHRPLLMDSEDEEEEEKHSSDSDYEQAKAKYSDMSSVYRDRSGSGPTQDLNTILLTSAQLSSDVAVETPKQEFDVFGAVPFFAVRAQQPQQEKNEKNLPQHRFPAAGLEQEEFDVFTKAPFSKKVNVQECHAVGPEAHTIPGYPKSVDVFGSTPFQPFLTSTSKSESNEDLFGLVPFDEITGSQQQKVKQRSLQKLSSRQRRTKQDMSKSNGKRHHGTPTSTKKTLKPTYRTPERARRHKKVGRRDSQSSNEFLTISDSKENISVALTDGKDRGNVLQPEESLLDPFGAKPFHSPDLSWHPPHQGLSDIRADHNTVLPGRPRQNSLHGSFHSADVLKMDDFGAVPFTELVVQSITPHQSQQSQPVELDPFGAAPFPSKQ

O=C(Nc1cccc([C@@H]2CN(c3ncnc4[nH]ccc34)CCN2CCO)c1)Nc1c(F)cccc1N1CCCC1
inhibition [1]: 39%
inhibition [2]: 0.3%
inhibition [3]: 93%
inhibition [4]: 85%
inhibition [5]: 88%
inhibition [6]: 86%
inhibition [7]: 74%
inhibition [8]: 100%
inhibition [9]: 72%
inhibition [10]: 100%
inhibition [11]: 88%
inhibition [12]: 97%
inhibition [13]: 79%
inhibition [14]: 99%
inhibition [15]: 100%
inhibition [16]: 61%
clearance [17]: 6.2 mL/min/kg
AUC(0-inf) [18]: 1890 ng·h/mL

O=C(Nc1cccc([C@H]2CCCN(c3ncnc4[nH]ccc34)C2)c1)Nc1ccccc1N1CCCC1
inhibition [19]: 25%
inhibition [20]: 56%
inhibition [21]: 100%
inhibition [22]: 12%
inhibition [23]: 27%
inhibition [24]: 61%
inhibition [25]: 2.6%
inhibition [26]: 93%
inhibition [27]: 40%
inhibition [28]: 48%
